Experimental findings from patent US7868204B2, “Inhibitors of histone deacetylase” (MethylGene Inc., priority 2001, dated 2011) are described below.

Assay [1] deals with T1, cloned recombinant human HDAC-1 (Homo sapiens, UniProt Q13547).
T1 construct: made in house; host or cells: Baculovirus insect cell expression system
Briefly: Human HDAC-1 enzyme inhibition, Assay 1 ([3H]-acetylated histone substrate, scintillation counting). Type of assay: biochemical. To be noted: read-out: Human HDAC-1 IC50. A digest of the protocol: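 Activity read as [3H]-acetic acid liberated from labeled substrate, ethyl acetate-extracted and scintillation-counted. Compounds preincubated 30 min at 4° C. with baculovirus-expressed, purified human HDAC-1. Dose-response curves give IC50 as concentration producing fifty percent of maximal inhibition.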

In assay [2] the test system is HCT116 cells. Description: MTT assay. It counts as cell-based. The conditions noted are these: Homo sapiens. A digest of the protocol: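 Read-out: MTT (0.5 mg/ml final, 4 h) after solubilization in 50% DMF/20% SDS, pH 4.7, with OD translated into cell number via the line's growth curve. Compound treatment lasted 72 h at 37 °C in 5% CO2, starting a day after plating.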
On the technique in general: Tetrazolium dyes change colour on reduction, which living cells bring about.

Assay [3] relates to acetylated histone H-4 in T24 human bladder cancer cells. Description: Histone H4 acetylation in whole cells by immunoblots. It counts as cell-based. To be noted: 16 h. A digest of the protocol: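 Acetylated histone H4 was quantified by densitometry of ECL-developed immunoblots, probed with a polyclonal antibody, of […] total histone from T24 cultures exposed 16 h to HDAC inhibitors.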
(Immunoblotting shows a protein as a band on a membrane.)

In assay [4] the test system is HCT116 human colorectal carcinoma cells. Description: Antitumor activity in HCT116 human colorectal tumor xenograft model in vivo. Details: species or system BALB/c nude mice. To be noted: Mus musculus, ip, HCT 116 colorectal tumor model, read-out: % Inhibition of Tumor Growth; for inhibition in vivo at 40 mg/kg: 40 mg/kg i.p.; for inhibition in vivo at 20 mg/kg: 20 mg/kg i.p. As for the experimental part: Eight to ten week old female BALB/c nude mice (Taconic Labs, Great Barrington, N.Y.) were injected subcutaneously in the flank area with 2×10^6 preconditioned HCT116 human colorectal carcinoma cells. Preconditioning of these cells was done by a minimum of three consecutive tumor transplantations in the same strain of nude mice. Subsequently, tumor fragments of approximately 30 mgs were excised and implanted subcutaneously in mice, in the left flank area, under Forene anesthesia (Abbott Labs, Geneve, Switzerland). When the tumors reached a mean volume of 100 mm^3, the mice were treated intravenously, subcutaneously, or intraperitoneally by daily injection, with a solution of the histone deacetylase inhibitor in an appropriate vehicle, such as PBS, DMSO/water, or Tween 80/water, at a starting dose of 10 mg/kg. The optimal dose of the HDAC inhibitor was established by dose response experiments according to standard protocols. Tumor volume was calculated every second day post infusion according to standard methods (e.g., Meyer et al., Int. J. Cancer 43: 851-856 (1989)). […] FIGS. 2-10 show the results of additional compounds tested.
A general note: In xenograft studies the graft and the host belong to different species.

Assay [5] has as its target HDAC-1 (Homo sapiens, UniProt Q13547). Briefly: Human HDAC-1 enzyme inhibition, Assay 2 (Boc-Lys(Ac)-AMC, Fluor-de-Lys fluorescence; compounds 604-617). It counts as biochemical. To be noted: read-out: HDAC1 IC50. As to the method:
Assay 2. The following protocol was also used to assay the compounds of the invention. In the assay, the buffer used was 25 mM HEPES, pH 8.0, 137 mM NaCl, 2.7 mM […], 1 mM MgCl2 and the substrate was Boc-Lys(Ac)-AMC in a 50 mM stock solution in DMSO. The enzyme stock solution was 4.08 μg/mL in buffer. The compounds were pre-incubated (2 μl in DMSO diluted to 13 μl in buffer for transfer to assay plate) with enzyme (20 μl of 4.08 μg/ml) for 10 minutes at room temperature (35 μl pre-incubation volume). The mixture was pre-incubated for 5 minutes at room temperature. The reaction was started by bringing the temperature to 37° C. and adding […] substrate. Total reaction volume was 50 μl. […] A plate was incubated in the dark for 10 minutes at room temperature before reading (λEx=360 nm, λEm=470 nm, Cutoff filter at 435 nm). Assay 2 was used to measure HDAC activity of compounds 604-617 (Table 5). HDAC activity of the remaining compounds was measured by assay 1.

Assay [6] has as its system acetyl-H3 in T24 human bladder cancer cells. Description: Histone H3 acetylation assay (anti-acetyl-H3, Amplex-Red fluorescence, normalized to Alamar Blue). It counts as cell-based. To be noted: T-24, 16 h incubation, read-out: H3 Ac t24. As to the method: T24 human bladder cancer cells growing in culture are incubated with HDAC inhibitors for 16 h. Cell viability is determined by adding 10 μl Alamar Blue (BioSource, DAL1100). Cells are washed once with PBS and fixed with methanol precooled to −20° C. for 10 min. The cells are then washed twice in PBS. The fixed cells are blocked with 50 μl of PBS+0.1% Triton X-100. Cells are probed with rabbit-anti-acetyl-H3 (Upstate #06-599) as the primary antibody and then with goat-anti-rabbit-HRP (Sigma #A-0545) as the secondary antibody. Fluorescence is read by fluorometer at Ex: 550, Em: 610, Cutoff: 590 (Auto PMT, 15 reads/well) after addition of Amplex-Red. Fluorescence signal is normalized against cell viability derived from Alamar Blue. Maximum acetylation signal of MS-275 (fluorescence unit) is measured as Emax.

Where [7] appears, read: HCT-116, 72 h, Table 5a, HCT116 cells, 72 hours.
[8] abbreviates: T-24, Table 5a, read-out: H4Ac (T24) EC50.
[9] abbreviates: HCT-116, 72 h, Table 5E, HCT116 cells, 72 hours.
[10] abbreviates: T-24, Table 5E, read-out: H4 Ac (T24) EC50.
Where [11] appears, read: HCT-116, 72 h, Table 5c, HCT116 cells, 72 hours.
Where [12] appears, read: T-24, Table 5c, read-out: H4Ac (T24) EC50.

The IC50 is the midpoint of a concentration-inhibition curve.

Read-outs that look alike come from different tables or passages of the source.

Chain of HDAC-1 (Q13547 whole entry): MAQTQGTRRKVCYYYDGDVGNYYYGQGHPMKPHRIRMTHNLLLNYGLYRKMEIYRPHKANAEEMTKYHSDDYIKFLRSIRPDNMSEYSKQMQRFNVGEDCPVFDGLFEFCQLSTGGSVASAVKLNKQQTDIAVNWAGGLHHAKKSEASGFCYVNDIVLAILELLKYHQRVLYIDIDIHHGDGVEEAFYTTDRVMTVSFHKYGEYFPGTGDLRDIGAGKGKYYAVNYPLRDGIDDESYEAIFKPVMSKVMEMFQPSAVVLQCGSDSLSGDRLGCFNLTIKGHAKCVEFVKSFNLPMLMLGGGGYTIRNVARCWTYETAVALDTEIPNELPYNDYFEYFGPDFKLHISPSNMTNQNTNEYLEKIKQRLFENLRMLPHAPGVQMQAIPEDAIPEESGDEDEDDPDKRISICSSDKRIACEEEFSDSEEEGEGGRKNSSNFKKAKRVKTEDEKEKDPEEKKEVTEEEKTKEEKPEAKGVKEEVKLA
T1 sequence (Q13547 whole entry): as above

`Nc1nc(NCc2ccc(C(=O)Nc3ccccc3N)cc2)nc(N2CCOCC2)n1` [Cpd 9, 4-[(4-amino-6-morpholin-4-yl-[1,3,5]-triazin-2-ylamino)-methyl]-N-(2-amino-phenyl)-benzamide]: the IC50 in assay [1] (Table 5a) was found to be 2000 nM; in assay [2] (setting [7]), 700 nM. Besides, in assay [3] (setting [8]), the EC50 turned out to be 5000 nM. For the same compound, the inhibition in vivo at 40 mg/kg in assay [4] was determined as 51%.
The like results for `Nc1nc(NCc2ccc(C(=O)Nc3ccccc3N)cc2)nc(N2CCCCC2)n1` [Cpd 15, N-(2-amino-phenyl)-4-[(4-amino-6-piperidin-1-yl [1,3,5]-triazin-2-ylamino)-methyl]-benzamide] were, in that order, 500 nM, 200 nM, 3000 nM and 26%.
With `Nc1nc(NCc2ccc(C(=O)Nc3ccccc3N)cc2)nc(NC2CCCC2)n1` [Cpd 16], the IC50 in assay [1] (Table 5a) came out at 1000 nM; in assay [2] (setting [7]), 400 nM. In addition, the EC50 in assay [3] (setting [8]) is 1000 nM. Moreover, the inhibition in vivo at 40 mg/kg in assay [4] was 50%.
Turning to `COc1ccc(CNc2ccc3cc(C(=O)Nc4ccccc4N)ccc3n2)cc1` [Cpd 87], the IC50 amounted to 2000 nM in assay [1] (Table 5E) and 1000 nM in assay [2] (setting [9]). For the same compound, the EC50 in assay [3] (setting [10]) came out at 5000 nM. The inhibition in vivo at 40 mg/kg in assay [4] came to 30%.
On to `Nc1ccccc1NC(=O)/C=C/c1ccc(NCc2cccc(OC(F)(F)F)c2)nc1` [Cpd 98, N-(2-aminophenyl)-3-[6-(3-trifluoromethoxy-benzylamino)-pyridin-3-yl]-acrylamide], for which the IC50 is 400 nM in assay [1] (Table 5c) and 2000 nM in assay [2] (setting [11]). Further, in assay [3] (setting [12]), the EC50 stood at 15000 nM. Also, in assay [4], the inhibition in vivo at 20 mg/kg came out at 52%.
Compound `COc1cc(NCc2ccc(/C=C/C(=O)Nc3ccccc3N)cc2)cc(OC)c1OC` [Cpd 106, N-(2-aminophenyl)-3-{4-[(3,4,5-trimethoxy-phenylamino)-methyl]-phenyl}-acrylamide] had an IC50 in assay [2] (setting [11]) of 2000 nM. In assay [3] (setting [12]), the EC50 is 1000 nM. In addition, the inhibition in vivo at 20 mg/kg in assay [4] was 80%.
In the case of `Nc1ccccc1NC(=O)c1ccc(CSc2nc3ccccc3[nH]2)cc1` [Cpd 126, N-(2-Amino-phenyl)-4-(1H-benzimidazol-2-ylsulfanylmethyl)-benzamide], the IC50 in assay [2] (setting [9]) was 200 nM. Further, the EC50 in assay [3] (setting [10]) stood at 1000 nM. The inhibition in vivo at 40 mg/kg in assay [4] came out at 62%.
`Nc1ccccc1NC(=O)c1ccc(Cn2cnc3ccccc3c2=O)cc1` [Cpd 154, N-(2-Amino-phenyl)-4-(4-oxo-4H-quinazolin-3-ylmethyl)-benzamide]: the figures for the half-inhibitory concentration (IC50) in assay [1] (Table 5E) and in assay [2] (setting [9]) were 300 nM and 400 nM, respectively. The EC50 in assay [3] (setting [10]) is less than 1000 nM. Moreover, the inhibition in vivo at 20 mg/kg in assay [4] amounted to 23%.
Take `Nc1ccccc1NC(=O)c1ccc(Cn2c(=O)[nH]c3ccccc3c2=O)cc1` [Cpd 157, N-(2-Amino-phenyl)-4-(2,4-dioxo-1,4-dihydro-2H-quinazolin-3-ylmethyl)-benzamide]: half-maximal inhibition in assay [2] (setting [9]) (IC50) was put at 600 nM. The EC50 in assay [3] (setting [10]) is 1000 nM. Also, the inhibition in vivo at 20 mg/kg in assay [4] was 66%.
On to `COc1ccc(CCNc2ccc(C(=O)Nc3ccccc3N)cn2)cc1` [Cpd 168], for which 800 nM corresponded to half-maximal inhibition in assay [2] (setting [9]) (IC50). Moreover, the EC50 in assay [3] (setting [10]) stood at 2000 nM. The inhibition in vivo at 40 mg/kg in assay [4] was 26%.
With `Nc1ccccc1NC(=O)c1ccc(N2CC[C@H](Nc3cccnc3)C2)cc1` [compound 604, (S)-N-(2-aminophenyl)-4-(3-(pyridin-3-ylamino)pyrrolidin-1-yl)benzamide], the IC50 worked out at 60 nM in assay [5] and 800 nM in assay [2] (HCT-116, HCT116 cells). The EC50 in assay [6] is 8000 nM.
As to `Nc1ccccc1NC(=O)c1ccc(N2CC[C@@H](Nc3cccnc3)C2)cc1` [compound 605, (R)-N-(2-aminophenyl)-4-(3-(pyridin-3-ylamino)pyrrolidin-1-yl)benzamide], the IC50 in assay [5] worked out at 300 nM; in assay [2] (HCT-116, HCT116 cells) it was 3000 nM. In addition, the EC50 in assay [6] turned out to be 12000 nM.
With `Nc1ccccc1NC(=O)c1ccc(N2CC[C@H](Oc3cccnc3)C2)cc1` [compound 606, (S)-N-(2-aminophenyl)-4-(3-(pyridin-3-yloxy)pyrrolidin-1-yl)benzamide], the IC50 in assay [5] stood at 400 nM; in assay [2] (HCT-116, HCT116 cells), 700 nM. For the same compound, the EC50 in assay [6] was 7000 nM.
Consider `Nc1ccccc1NC(=O)c1ccc(N2CC[C@@H](Oc3cccnc3)C2)cc1` [compound 607, (R)-N-(2-aminophenyl)-4-(3-(pyridin-3-yloxy)pyrrolidin-1-yl)benzamide], for which the IC50 in assay [5] stood at 639 nM; in assay [2] (HCT-116, HCT116 cells) it was 1000 nM.
`Nc1ccccc1NC(=O)c1ccc(N2CC[C@H](Nc3ccccc3)C2)cc1` [compound 608, (S)-N-(2-aminophenyl)-4-(3-(phenylamino)pyrrolidin-1-yl)benzamide]: the IC50 in assay [5] stood at 200 nM; in assay [2] (HCT-116, HCT116 cells), 300 nM. Besides, the EC50 in assay [6] amounted to 200 nM.
Take `Nc1ccccc1NC(=O)c1ccc(N2CC[C@@H](Nc3ccccc3)C2)cc1` [compound 609, (R)-N-(2-aminophenyl)-4-(3-(phenylamino)pyrrolidin-1-yl)benzamide]: the IC50 amounted to 1220 nM in assay [5] and 2000 nM in assay [2] (HCT-116, HCT116 cells).
Taken in the same sequence, the figures for `Nc1ccccc1NC(=O)c1ccc(N2CC[C@H](Oc3ccccc3)C2)cc1` [compound 610, (S)-N-(2-aminophenyl)-4-(3-phenoxypyrrolidin-1-yl)benzamide] were 266 nM and 750 nM.
The like results for `COC(=O)c1ccc(O[C@H]2CCN(c3ccc(C(=O)Nc4ccccc4N)cc3)C2)cc1` [compound 611, (S)-methyl-4-(1-(4-(2-aminophenylcarbamoyl)phenyl)pyrrolidin-3-yloxy)benzoate] were, in that order, 97.6 nM and 600 nM.
Taken in the same sequence, the figures for `Nc1ccccc1NC(=O)c1ccc(N2CC[C@H](Oc3ccc(C(=O)O)cc3)C2)cc1` [compound 612, (S)-4-(1-(4-(2-aminophenylcarbamoyl)phenyl)pyrrolidin-3-yloxy)benzoic acid] were 815 nM and 39000 nM.
Consider `Nc1ccccc1NC(=O)c1ccc(N2CC[C@H](Oc3ccc(Oc4ccccc4)cc3)C2)cc1` [compound 615, (S)-N-(2-aminophenyl)-4-(3-(4-phenoxyphenoxy)pyrrolidin-1-yl)benzamide], for which the IC50 was 1380 nM in assay [5] and 4000 nM in assay [2] (HCT-116, HCT116 cells).
In the case of `Nc1ccccc1NC(=O)c1ccc(N2CC[C@H](Oc3ccc([N+](=O)[O-])cc3)C2)cc1` [compound 616, (S)-N-(2-aminophenyl)-4-(3-(4-nitrophenoxy)pyrrolidin-1-yl)benzamide], the IC50 in assay [5] was determined as 107 nM; in assay [2] (HCT-116, HCT116 cells) it was 700 nM.
